Test results: the kinase profiling compilation of Christmann-Franck et al. (2016)

Legend:
Details in all cases: compound 10.0 µM
[1] = biological target: ACVR1B (human) (UniProt P36896)
[2] = biological target: ADRBK1 (human) (UniProt P25098)
[3] = biological target: CDC42BPA (human) (UniProt Q5VT25)
[4] = biological target: CDK6 CCND1 (human) (UniProt Q00534+P24385)
[5] = biological target: CDK7 CCNH MNAT1 (human) (UniProt P50613+P51948+P51946)
[6] = biological target: CDK9 CCNT1 (human) (UniProt O60563+P50750)
[7] = biological target: CHUK (human) (UniProt O15111)
[8] = biological target: CLK2 (human) (UniProt P49760)
[9] = biological target: CLK3 (human) (UniProt P49761)
[10] = biological target: CLK4 (human) (UniProt Q9HAZ1)
[11] = biological target: CSK (human) (UniProt P41240)
[12] = biological target: CSNK1A1 (human) (UniProt P48729)
[13] = biological target: DSTYK (human) (UniProt Q6XUX3)
[14] = biological target: FLT1 (human) (UniProt P17948)
[15] = biological target: FLT4 (human) (UniProt P35916)
[16] = biological target: HIPK3 (human) (UniProt Q9H422)
[17] = biological target: INSRR (human) (UniProt P14616)
[18] = biological target: JAK2 JH1 JH2 (human) (UniProt O60674)
[19] = biological target: LRRK2 (human) (UniProt Q5S007)
[20] = biological target: MAP2K1 (human) (UniProt Q02750)
[21] = biological target: MAP3K5 (human) (UniProt Q99683)
[22] = biological target: MAP3K9 (human) (UniProt P80192)
[23] = biological target: MAP4K4 (human) (UniProt O95819)
[24] = biological target: MAPK11 (human) (UniProt Q15759)
[25] = biological target: MAPK3 (human) (UniProt P27361)
[26] = biological target: MAPK8 (human) (UniProt P45983)
[27] = biological target: MAPK9 (human) (UniProt P45984)
[28] = biological target: MATK (human) (UniProt P42679)
[29] = biological target: MET (human) (UniProt P08581)
[30] = biological target: NEK4 (human) (UniProt P51957)
[31] = biological target: NTRK2 (human) (UniProt Q16620)
[32] = biological target: NUAK1 (human) (UniProt O60285)
[33] = biological target: OXSR1 (human) (UniProt O95747)
[34] = biological target: PRKCA (human) (UniProt P17252)
[35] = biological target: PRKCI (human) (UniProt P41743)
[36] = biological target: PRKD1 (human) (UniProt Q15139)
[37] = biological target: PRKD3 (human) (UniProt O94806)
[38] = biological target: PTK2B (human) (UniProt Q14289)
[39] = biological target: SLK (human) (UniProt Q9H2G2)
[40] = biological target: SRPK1 (human) (UniProt Q96SB4)
[41] = biological target: SRPK2 (human) (UniProt P78362)
[42] = biological target: SRPK3 (human) (UniProt Q9UPE1)
[43] = biological target: STK25 (human) (UniProt O00506)
[44] = biological target: TLK2 (human) (UniProt Q86UE8)

Sequence of CDK6 CCND1 (human) (P24385 whole entry, looked up): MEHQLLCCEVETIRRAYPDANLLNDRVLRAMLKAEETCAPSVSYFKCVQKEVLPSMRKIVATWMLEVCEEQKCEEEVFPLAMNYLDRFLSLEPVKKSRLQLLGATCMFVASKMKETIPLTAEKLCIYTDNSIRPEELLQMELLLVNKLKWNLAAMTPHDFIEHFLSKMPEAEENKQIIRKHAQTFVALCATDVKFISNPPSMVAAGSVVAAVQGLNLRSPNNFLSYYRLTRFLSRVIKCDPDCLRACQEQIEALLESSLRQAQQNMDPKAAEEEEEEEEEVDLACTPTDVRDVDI
Sequence of CDK6 CCND1 (human) (Q00534 whole entry, looked up): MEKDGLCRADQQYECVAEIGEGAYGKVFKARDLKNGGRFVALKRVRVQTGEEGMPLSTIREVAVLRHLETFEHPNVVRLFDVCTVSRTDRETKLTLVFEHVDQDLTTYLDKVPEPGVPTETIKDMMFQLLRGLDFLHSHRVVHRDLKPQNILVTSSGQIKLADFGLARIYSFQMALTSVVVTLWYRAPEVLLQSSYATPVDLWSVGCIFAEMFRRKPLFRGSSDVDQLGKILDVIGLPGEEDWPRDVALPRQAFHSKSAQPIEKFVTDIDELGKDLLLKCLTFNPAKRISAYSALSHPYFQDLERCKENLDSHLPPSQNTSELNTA
Sequence of NEK4 (human) (P51957 whole entry, looked up): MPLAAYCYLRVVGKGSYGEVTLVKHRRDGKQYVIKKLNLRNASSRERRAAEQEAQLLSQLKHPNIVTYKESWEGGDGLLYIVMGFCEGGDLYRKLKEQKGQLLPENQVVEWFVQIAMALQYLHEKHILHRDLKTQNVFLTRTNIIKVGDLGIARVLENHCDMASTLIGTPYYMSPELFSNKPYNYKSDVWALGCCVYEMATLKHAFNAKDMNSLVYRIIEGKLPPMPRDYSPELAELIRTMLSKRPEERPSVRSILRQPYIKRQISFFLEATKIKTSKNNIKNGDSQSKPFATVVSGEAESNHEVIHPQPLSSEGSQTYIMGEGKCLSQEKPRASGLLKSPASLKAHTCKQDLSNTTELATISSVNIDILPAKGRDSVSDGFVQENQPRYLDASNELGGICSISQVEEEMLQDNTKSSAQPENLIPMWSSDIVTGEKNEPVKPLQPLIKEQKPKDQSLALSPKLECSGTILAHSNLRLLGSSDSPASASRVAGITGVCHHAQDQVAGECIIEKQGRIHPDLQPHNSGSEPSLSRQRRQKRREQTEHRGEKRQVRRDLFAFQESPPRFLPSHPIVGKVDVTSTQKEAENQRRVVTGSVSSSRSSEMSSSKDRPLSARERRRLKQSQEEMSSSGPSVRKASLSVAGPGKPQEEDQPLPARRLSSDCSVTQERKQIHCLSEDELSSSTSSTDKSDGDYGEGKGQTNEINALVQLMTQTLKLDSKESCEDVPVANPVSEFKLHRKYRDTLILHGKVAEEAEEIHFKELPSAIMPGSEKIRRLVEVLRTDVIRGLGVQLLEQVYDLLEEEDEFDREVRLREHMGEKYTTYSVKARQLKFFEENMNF
Sequence of FLT1 (human) (P17948 whole entry, looked up): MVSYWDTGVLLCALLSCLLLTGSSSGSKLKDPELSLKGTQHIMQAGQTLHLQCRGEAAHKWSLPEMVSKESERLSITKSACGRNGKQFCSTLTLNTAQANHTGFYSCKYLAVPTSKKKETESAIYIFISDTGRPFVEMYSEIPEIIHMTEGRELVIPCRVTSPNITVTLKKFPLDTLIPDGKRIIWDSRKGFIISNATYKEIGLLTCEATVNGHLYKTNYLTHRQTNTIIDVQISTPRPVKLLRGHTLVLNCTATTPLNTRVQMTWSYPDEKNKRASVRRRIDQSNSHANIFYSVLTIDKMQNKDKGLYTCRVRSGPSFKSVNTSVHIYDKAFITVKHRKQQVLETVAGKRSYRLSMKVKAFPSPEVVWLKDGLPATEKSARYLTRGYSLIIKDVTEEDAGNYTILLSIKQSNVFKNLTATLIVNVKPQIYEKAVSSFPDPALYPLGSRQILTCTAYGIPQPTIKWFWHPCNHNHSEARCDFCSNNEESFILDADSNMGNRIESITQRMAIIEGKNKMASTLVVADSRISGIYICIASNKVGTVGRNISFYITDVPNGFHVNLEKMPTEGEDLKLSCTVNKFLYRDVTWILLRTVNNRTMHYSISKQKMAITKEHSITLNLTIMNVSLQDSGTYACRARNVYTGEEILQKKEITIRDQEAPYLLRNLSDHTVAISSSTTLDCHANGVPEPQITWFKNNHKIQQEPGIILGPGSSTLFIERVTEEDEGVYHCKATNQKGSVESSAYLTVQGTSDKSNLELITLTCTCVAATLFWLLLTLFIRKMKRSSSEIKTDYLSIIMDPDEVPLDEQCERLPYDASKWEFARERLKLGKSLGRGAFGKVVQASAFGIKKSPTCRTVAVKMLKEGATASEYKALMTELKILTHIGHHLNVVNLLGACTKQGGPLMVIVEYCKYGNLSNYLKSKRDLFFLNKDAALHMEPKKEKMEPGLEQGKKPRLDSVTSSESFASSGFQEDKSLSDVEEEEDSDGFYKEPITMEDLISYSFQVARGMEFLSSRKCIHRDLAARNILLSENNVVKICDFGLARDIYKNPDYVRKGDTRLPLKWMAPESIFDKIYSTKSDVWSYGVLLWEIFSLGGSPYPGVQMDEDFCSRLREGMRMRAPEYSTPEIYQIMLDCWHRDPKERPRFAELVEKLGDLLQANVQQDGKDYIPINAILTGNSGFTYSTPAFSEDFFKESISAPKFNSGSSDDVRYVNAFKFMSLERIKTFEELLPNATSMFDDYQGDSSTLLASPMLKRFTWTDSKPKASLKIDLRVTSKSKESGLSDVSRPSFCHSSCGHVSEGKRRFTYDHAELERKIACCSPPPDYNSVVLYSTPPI
Sequence of STK25 (human) (O00506 whole entry, looked up): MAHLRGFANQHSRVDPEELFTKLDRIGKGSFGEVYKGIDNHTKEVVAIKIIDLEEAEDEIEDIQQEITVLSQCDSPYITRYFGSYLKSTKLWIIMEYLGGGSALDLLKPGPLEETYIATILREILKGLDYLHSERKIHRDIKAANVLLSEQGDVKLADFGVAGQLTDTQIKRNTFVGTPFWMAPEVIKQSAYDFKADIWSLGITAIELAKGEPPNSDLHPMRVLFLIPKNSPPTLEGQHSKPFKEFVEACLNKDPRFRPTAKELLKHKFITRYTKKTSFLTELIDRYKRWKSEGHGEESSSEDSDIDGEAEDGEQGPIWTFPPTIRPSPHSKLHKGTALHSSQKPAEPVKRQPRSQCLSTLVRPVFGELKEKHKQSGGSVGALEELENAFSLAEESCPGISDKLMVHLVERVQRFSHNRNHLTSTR
Sequence of MAP3K9 (human) (P80192 whole entry, looked up): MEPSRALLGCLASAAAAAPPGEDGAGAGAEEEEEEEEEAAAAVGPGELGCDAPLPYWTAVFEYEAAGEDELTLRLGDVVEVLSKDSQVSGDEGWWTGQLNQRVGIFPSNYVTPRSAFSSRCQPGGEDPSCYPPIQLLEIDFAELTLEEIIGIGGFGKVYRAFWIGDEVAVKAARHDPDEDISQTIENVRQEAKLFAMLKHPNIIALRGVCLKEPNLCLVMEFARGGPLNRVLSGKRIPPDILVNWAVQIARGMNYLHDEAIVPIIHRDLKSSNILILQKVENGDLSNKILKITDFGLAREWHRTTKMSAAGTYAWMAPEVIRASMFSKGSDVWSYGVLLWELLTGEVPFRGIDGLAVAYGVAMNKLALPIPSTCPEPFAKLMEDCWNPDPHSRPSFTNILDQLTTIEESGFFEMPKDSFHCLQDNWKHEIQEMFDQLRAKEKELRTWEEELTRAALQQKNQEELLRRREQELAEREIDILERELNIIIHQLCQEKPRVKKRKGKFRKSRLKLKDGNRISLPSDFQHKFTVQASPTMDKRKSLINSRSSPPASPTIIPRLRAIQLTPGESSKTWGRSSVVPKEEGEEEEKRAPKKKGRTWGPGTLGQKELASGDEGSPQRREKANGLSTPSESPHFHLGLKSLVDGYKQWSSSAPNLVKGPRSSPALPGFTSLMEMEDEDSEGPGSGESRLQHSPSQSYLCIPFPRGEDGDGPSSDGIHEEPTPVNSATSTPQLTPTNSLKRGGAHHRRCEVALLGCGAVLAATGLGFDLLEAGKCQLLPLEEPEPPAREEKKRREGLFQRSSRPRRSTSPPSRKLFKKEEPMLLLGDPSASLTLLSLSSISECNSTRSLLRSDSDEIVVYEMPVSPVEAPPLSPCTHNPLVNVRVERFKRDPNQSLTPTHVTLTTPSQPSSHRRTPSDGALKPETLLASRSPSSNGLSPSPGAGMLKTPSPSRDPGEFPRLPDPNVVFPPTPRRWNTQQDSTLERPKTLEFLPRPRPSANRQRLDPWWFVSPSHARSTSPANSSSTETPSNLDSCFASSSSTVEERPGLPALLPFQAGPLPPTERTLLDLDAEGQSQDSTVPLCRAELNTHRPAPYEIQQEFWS
Sequence of MATK (human) (P42679 whole entry, looked up): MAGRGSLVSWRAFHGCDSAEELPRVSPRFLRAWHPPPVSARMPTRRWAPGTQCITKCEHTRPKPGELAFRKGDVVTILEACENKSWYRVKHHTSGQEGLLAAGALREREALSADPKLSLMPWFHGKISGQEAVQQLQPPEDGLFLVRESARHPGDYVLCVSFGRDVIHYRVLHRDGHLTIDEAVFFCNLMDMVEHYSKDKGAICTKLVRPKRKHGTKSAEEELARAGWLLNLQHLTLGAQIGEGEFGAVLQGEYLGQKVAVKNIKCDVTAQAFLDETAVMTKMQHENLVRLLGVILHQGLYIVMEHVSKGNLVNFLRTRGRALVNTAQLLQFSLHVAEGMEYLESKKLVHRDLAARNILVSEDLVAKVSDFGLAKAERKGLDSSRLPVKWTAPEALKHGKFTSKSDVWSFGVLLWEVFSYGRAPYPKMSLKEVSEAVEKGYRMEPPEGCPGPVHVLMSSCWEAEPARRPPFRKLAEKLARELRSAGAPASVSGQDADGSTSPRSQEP

`CC[C@H](C)n1cc(C)c2c(C(=O)NCc3c(C)cc(C)[nH]c3=O)cc(-c3ccc(N4CCNCC4)nc3)cc21` gave a residual activity [1] of 98.5%, a residual activity [2] of 108% and a residual activity [3] of 100%. The residual activity [4] was 106%, the residual activity [5] was 102% and the residual activity [6] was 98%. The residual activity [7] was 93%, the residual activity [8] was 89.5% and the residual activity [9] was 86%. The residual activity [10] was 95.5%, the residual activity [11] was 89.5% and the residual activity [12] was 97%. It also gave a residual activity [13] of 97.5%, a residual activity [14] of 97.5% and a residual activity [15] of 82.5%. For the same compound, the residual activity [16] was 100%, the residual activity [17] was 88% and the residual activity [18] was 91.5%. For the same compound, the residual activity [19] was 99%, the residual activity [20] was 102% and the residual activity [21] was 102%. The residual activity [22] was 92.5%, the residual activity [23] was 102% and the residual activity [24] was 102%. The residual activity [25] was 99%, the residual activity [26] was 99.5% and the residual activity [27] was 80.5%. For the same compound, the residual activity [28] was 95.5%, the residual activity [29] was 128% and the residual activity [30] was 95.5%. For the same compound, the residual activity [31] was 99%, the residual activity [32] was 102% and the residual activity [33] was 92.5%. For the same compound, the residual activity [34] was 106%, the residual activity [35] was 99.5% and the residual activity [36] was 100%. It also gave a residual activity [37] of 102%, a residual activity [38] of 110% and a residual activity [39] of 108%. The residual activity [40] was 108%, the residual activity [41] was 98.5% and the residual activity [42] was 98%. It also gave a residual activity [43] of 93% and a residual activity [44] of 101%.
